One assay has as its target T1, cdk2/cyclin E (Homo sapiens, UniProt P24941).
T1 construct: made in house; host or cells: insect cells (baculovirus co-infection)
Description: Cyclin-Dependent Kinase 2 Assay (cdk-2 inhibition). Format: biochemical. The conditions noted are these: GST-Rb substrate, 30 min at 30° C. An outline of the steps: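 GST-Rb bound to glutathione-Sepharose beads (0.5 μg/well) as substrate in 50 mM HEPES pH 7.5, 10 mM MgCl2, 1 mM EGTA. Recombinant cdk2/cyclin E at 0.1 μg per 100 μl, 30 min at 30 °C. Reaction stopped by filtration, TNEN washes, scintillation counting.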

The target in a further assay is T2, cdk4/cyclin D1 (Homo sapiens, UniProt P11802).
T2 construct: made in house; host or cells: Sf9 insect cells (Bac-to-Bac baculovirus, pFastBac)
Kind of assay: Cyclin-dependent kinase 4 Assay. Format: biochemical. Conditions: cdk4/cyclin D1, GST-Rb substrate, 10 μM ATP, 30 min at 37° C.; read-out: CDK4 Inhibition IC50. Put shortly:
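Insect-cell lysate of coexpressed human cdk4/cyclin D1 (0.1 μg) phosphorylated bead-bound GST-Rb (0.5 μg) in 50 mM HEPES pH 7.5, 10 mM MgCl2, 1 mM EGTA for 30 min at 37 °C. Filters were washed with TNEN and scintillation-counted; IC50 values derived.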

A further assay has as its system MCF-7. Description: In vitro tumor cell proliferation, MCF-7. It is filed as cell-based, human. Conditions: read-out: In vitro Tumor Cell Proliferation (IC50, μM) Breast MCF-7. The protocol: (§1) The proliferation of tumor cells was measured using a sulforhodamine B assay as described in Skehan, P., et al., J. Natl. Cancer Inst. […] Tumor cells were harvested with trypsin-EDTA, cells that excluded trypan blue were counted, added to 96-well plates and incubated overnight at 37° C. Drug was added to the wells following dilution in culture medium. Three days later, the medium was removed and replenished with medium containing fresh drug and incubated an additional 4 days. The cells were then fixed with 0.1 ml 10% trichloroacetic acid for 60 min at 4° C. The plates were rinsed five times with tap water, air-dried and stained for 30 min with 0.4% sulforhodamine B in 1% acetic acid and air-dried.
(§2) Alternatively, the CyQUANT cell proliferation assay was used to quantify tumor cell proliferation. Tumor cells were harvested with trypsin-EDTA, cells that excluded trypan blue were counted, added to 96-well plates and incubated overnight at 37° C. Drug was added to the wells following dilution in culture medium. Three days later the medium was removed and the plates frozen at −80° C. for at least 30 minutes.
MCF7 is a human breast adenocarcinoma, hormone-dependent (HTB 22);

The subject of the next assay is MDA-MB-231. Kind of assay: In vitro tumor cell proliferation, MDA-MB-231. Format: cell-based, human. Conditions: read-out: In vitro Tumor Cell Proliferation (IC50, μM) Breast MDA-MB-231. Put shortly:
(§3)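 Cells seeded overnight at 37° C, then exposed to drug 3 days, medium and drug renewed, plus 4 more days; TCA-fixed and sulforhodamine B stained. Alternatively CyQUANT read-out after 3 days' drug exposure, plates frozen at −80° C.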

In a further assay the test system is HT-29. Kind of assay: In vitro tumor cell proliferation, HT-29. Format: cell-based, human. Conditions: read-out: In vitro Tumor Cell Proliferation (IC50, μM) Colon HT-29 (converted). Put shortly:
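HT-29 human colon adenocarcinoma cells plated overnight at 37° C., then exposed to drug for 3 days, medium with fresh drug replaced for a further 4 days. Cells fixed with 10% TCA and stained with 0.4% sulforhodamine B; alternatively, CyQUANT read after 3 days of drug exposure.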

Another assay concerns HCT-15. Description: In vitro tumor cell proliferation, HCT-15. It is filed as cell-based, human. Conditions: read-out: In vitro Tumor Cell Proliferation (IC50, μM) Colon HCT-15. The protocol: as §1, §2
A further assay concerns A549. Description: In vitro tumor cell proliferation, A549. It is filed as cell-based, human. The conditions noted are these: read-out: In vitro Tumor Cell Proliferation (IC50, μM) Lung A549. An outline of the steps: as §3
The next assay has as its system DMS-114. Kind of assay: In vitro tumor cell proliferation, DMS-114. Format: cell-based, human. Conditions: read-out: In vitro Tumor Cell Proliferation (IC50, μM) Lung DMS-114. Put shortly:
as §3

For another assay, the system named is PC-3. Description: In vitro tumor cell proliferation, PC-3. It is filed as cell-based, human. The conditions noted are these: read-out: In vitro Tumor Cell Proliferation (IC50, μM) Prostate PC-3. An outline of the steps:
as §3

Another assay deals with DU 145. Description: In vitro tumor cell proliferation, DU 145. It is filed as cell-based, human. The conditions noted are these: read-out: In vitro Tumor Cell Proliferation (IC50, μM) Prostate DUI45. An outline of the steps: as §3
Where [1] appears, read: Homo sapiens, MCF7, values without *.
[2] abbreviates: values without *, dihydrochloride.
The mark [3] stands for this setting: Homo sapiens, MDA-MB-231, values without *.
Where [4] appears, read: Homo sapiens, HT-29, values without *.
[5] abbreviates: Homo sapiens, HCT-15, values without *.
Setting [6] is: Homo sapiens, A549, values without *.
[7] abbreviates: Homo sapiens, DMS-114, values without *.
Where [8] appears, read: Homo sapiens, PC-3, values without *.
The mark [9] stands for this setting: Homo sapiens, DU-145, values without *.

“And” between values parts separate entries of the source, which are not always exact repeats. Equal entries are not always repeated. Structures can show the parent of a compound that is named as a salt. Where two headings read alike, the source gives them in different places.

T2 sequence (P11802 whole entry): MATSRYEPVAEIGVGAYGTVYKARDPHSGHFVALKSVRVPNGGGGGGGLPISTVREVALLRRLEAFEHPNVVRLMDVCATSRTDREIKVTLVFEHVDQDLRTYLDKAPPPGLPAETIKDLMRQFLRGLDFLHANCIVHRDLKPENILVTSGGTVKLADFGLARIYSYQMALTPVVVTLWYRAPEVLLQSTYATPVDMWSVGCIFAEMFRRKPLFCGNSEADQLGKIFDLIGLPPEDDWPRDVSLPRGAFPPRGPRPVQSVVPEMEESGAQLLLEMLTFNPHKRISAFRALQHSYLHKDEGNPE
T2 sequence (P24385 whole entry partner): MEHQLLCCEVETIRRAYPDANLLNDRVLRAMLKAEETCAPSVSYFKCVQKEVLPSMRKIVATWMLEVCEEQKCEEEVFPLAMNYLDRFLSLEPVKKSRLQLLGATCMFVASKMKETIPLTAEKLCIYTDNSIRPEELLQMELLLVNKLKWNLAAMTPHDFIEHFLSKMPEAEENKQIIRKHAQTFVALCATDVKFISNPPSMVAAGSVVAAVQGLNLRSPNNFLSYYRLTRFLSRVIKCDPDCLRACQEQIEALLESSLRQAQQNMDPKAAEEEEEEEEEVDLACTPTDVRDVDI

On to `CCCCNc1nc(N[C@H]2CC[C@H](N)CC2)nc2c1ncn2C1CCCC1` [Example 3, 2-[Trans-(4-aminocylcohexyl)amino]-6-(butylamino)-9-cyclopentylpurine dihydrochloride], for which the IC50 was 33 nM and 17 nM at cdk2/cyclin E; 390 nM and 660 nM on cdk4/cyclin D1; 0.59 µM with MCF-7 (setting [1]); 0.81 µM in the assay with MCF-7 (setting [2]); 0.95 µM in the assay on MDA-MB-231 (setting [3]); 1.2 µM in the assay with MDA-MB-231 (setting [2]). Also, the IC50 was 0.92 µM with HT-29 (setting [4]); 1.5 µM with HT-29 (setting [2]); 3.9 µM in the assay with HCT-15 (setting [5]); 3.6 µM in the assay with HCT-15 (setting [2]); 0.6 µM in the assay on A549 (setting [6]); 0.63 µM with A549 (setting [2]). For the same compound, the IC50 in the assay with DMS-114 (setting [7]) was 0.49 µM; in the assay on DMS-114 (setting [2]), 0.73 µM; in the assay on PC-3 (setting [8]), 0.37 µM; in the assay on DU 145 (setting [9]), 0.54 µM; in the assay on DU 145 (setting [2]), 0.6 µM.
In the case of `N[C@H]1CC[C@H](Nc2nc(NCc3ccc(Cl)c(Cl)c3)c3ncn(C4CCCC4)c3n2)CC1` [Example 10, 2-[Trans-(4-aminocyclohexyl)amino]-6-[(3,4-dichlorobenzyl)amino]-9-cyclopentylpurine dihydrochloride], the IC50 against cdk2/cyclin E was 140 nM; on cdk4/cyclin D1, 190 nM and 300 nM; in the assay on MCF-7 (setting [1]), 1.1 µM; with MCF-7 (setting [2]), 1.8 µM; in the assay with MDA-MB-231 (setting [3]), 1.2 µM; with MDA-MB-231 (setting [2]), 1.7 µM. The IC50 with HT-29 (setting [4]) is 1.6 µM; in the assay with HCT-15 (setting [5]), 1.9 µM; in the assay on A549 (setting [6]), 1.7 µM; in the assay with A549 (setting [2]) it was 0.98 µM; in the assay on DMS-114 (setting [7]), 1.5 µM; in the assay on PC-3 (setting [8]), 0.97 µM. Also, the figures for the IC50 in the assay with PC-3 (setting [2]), in the assay with DU 145 (setting [9]) and in the assay with DU 145 (setting [2]) were 0.79 µM, 0.97 µM and 1.8 µM, respectively.
On to `C[C@@H](Nc1nc(NC2CCC(N)CC2)nc2c1ncn2C1CCCC1)c1ccccc1` (stereo partly drawn) [Example 16, (R)-2-[Trans-(4-aminocyclohexyl)amino]-6-[(α-methylbenzylamino]-9-cyclopentylpurinedihydrochloride], for which the IC50 against cdk2/cyclin E is 720 nM; at cdk4/cyclin D1 it was 11000 nM and 6700 nM; in the assay with MCF-7 (setting [1]) it was 4.1 µM; with MCF-7 (setting [2]), 2.5 µM; with MDA-MB-231 (setting [3]), 5.9 µM; with MDA-MB-231 (setting [2]), 4.4 µM. In addition, the IC50 in the assay with HT-29 (setting [4]) is 6.3 µM; in the assay on HT-29 (setting [2]), 5.1 µM; with HCT-15 (setting [5]), 9.4 µM; with HCT-15 (setting [2]), 7.8 µM; with A549 (setting [6]) it was 6.4 µM; in the assay on A549 (setting [2]) it was 5.8 µM. The IC50 was 7.4 µM with DMS-114 (setting [7]); 5.1 µM in the assay with DMS-114 (setting [2]); 5 µM with PC-3 (setting [8]); 2.8 µM in the assay with PC-3 (setting [2]); 6.2 µM with DU 145 (setting [9]); 5 µM in the assay on DU 145 (setting [2]).
For the compound `N[C@H]1CC[C@H](Nc2nc(NCCCc3ccccc3)c3ncn(C4CCCC4)c3n2)CC1` [Example 24, 2-[Trans-(4-aminocyclohexyl)amino]-6-[3-(phenyl)propylamino]-9-cyclopentylpurine dihydrochloride], the IC50 was 130 nM against cdk2/cyclin E; 570 nM and 900 nM on cdk4/cyclin D1; 0.42 µM with MCF-7 (Homo sapiens, MCF7, values marked * (mark not explained)); 0.34 µM in the assay on MCF-7 (setting [1]); 0.47 µM in the assay on MCF-7 (setting [2]); 0.24 µM with MDA-MB-231 (Homo sapiens, MDA-MB-231, values marked * (mark not explained)). The IC50 in the assay on HT-29 (Homo sapiens, HT-29, values marked * (mark not explained)) was 0.19 µM; in the assay on HT-29 (setting [4]), 0.16 µM; with HT-29 (setting [2]) it was 0.17 µM and 0.28 µM; in the assay on HCT-15 (Homo sapiens, HCT-15, values marked * (mark not explained)) it was 0.99 µM; in the assay on HCT-15 (setting [5]) it was 1.4 µM; in the assay on HCT-15 (setting [2]) it was 1 µM. Besides, the IC50 with A549 (Homo sapiens, A549, values marked * (mark not explained)) was found to be 0.11 µM; in the assay on A549 (setting [6]), 0.15 µM; with DMS-114 (Homo sapiens, DMS-114, values marked * (mark not explained)), 0.07 µM; in the assay with DMS-114 (setting [7]) it was 0.14 µM; in the assay on DMS-114 (setting [2]) it was 0.13 µM; in the assay with PC-3 (Homo sapiens, PC-3, values marked * (mark not explained)), 0.2 µM. Moreover, the IC50 with PC-3 (setting [8]) is 0.13 µM; in the assay with PC-3 (setting [2]), 0.23 µM; in the assay on DU 145 (Homo sapiens, DU-145, values marked * (mark not explained)) it was 0.54 µM; in the assay on DU 145 (setting [9]), 0.39 µM; with DU 145 (setting [2]), 0.38 µM and 0.51 µM.
Consider `CC(C)CCNc1nc(N[C@H]2CC[C@H](N)CC2)nc2c1ncn2C1CCCC1` [Example 36, 2-[Trans-(4-aminocyclohexyl)amino]-6-[(3-methylbutyl)amino]-9-cyclopentylpurine dihydrochloride], for which the IC50 against cdk2/cyclin E was 120 nM; at cdk4/cyclin D1 it was 1100 nM and 600 nM; in the assay on MCF-7 (setting [1]), 1.1 µM; with MCF-7 (setting [2]) it was 1.3 µM; with MDA-MB-231 (setting [3]), 1.4 µM; with MDA-MB-231 (setting [2]), 2 µM. Moreover, the IC50 in the assay on HT-29 (setting [4]) was 1.5 µM; in the assay on HT-29 (setting [2]) it was 1.9 µM; with HCT-15 (setting [5]), 3.1 µM; with HCT-15 (setting [2]) it was 3.3 µM; in the assay with A549 (setting [6]), 0.8 µM; with A549 (setting [2]), 0.94 µM. Moreover, the IC50 came out at 0.88 µM in the assay with DMS-114 (setting [7]); 0.91 µM with DMS-114 (setting [2]); 0.68 µM in the assay with PC-3 (setting [8]); 0.89 µM in the assay on DU 145 (setting [9]); 1.1 µM with DU 145 (setting [2]).
Regarding `N[C@H]1CC[C@H](Nc2nc(NCCc3ccccc3)c3ncn(C4CCCC4)c3n2)CC1` [Example 43, 2-[Trans-(4-aminocyclohexyl)amino-6-[2-(phenyl)ethylamino]-9-cyclopentylpurinedihydrochloride], the IC50 on cdk2/cyclin E was determined as 160 nM; on cdk4/cyclin D1, 250 nM; with MCF-7 (setting [1]), 1.2 µM; in the assay with MCF-7 (setting [2]), 1.6 µM; in the assay on MDA-MB-231 (setting [3]), 2.1 µM; in the assay with MDA-MB-231 (setting [2]) it was 2.5 µM. Also, the IC50 is 2.2 µM with HT-29 (setting [4]); 2.8 µM in the assay with HT-29 (setting [2]); 3.4 µM with HCT-15 (setting [5]); 3.2 µM with HCT-15 (setting [2]); 1.1 µM in the assay with A549 (setting [6]); 1 µM in the assay with A549 (setting [2]). In addition, the IC50 amounted to 0.92 µM in the assay with DMS-114 (setting [7]); 1.2 µM in the assay on DMS-114 (setting [2]); 0.89 µM with PC-3 (setting [8]); 0.92 µM with PC-3 (setting [2]); 1.2 µM with DU 145 (setting [9]); 1.4 µM in the assay on DU 145 (setting [2]).

Source of the values: patent US6413974B1, “6,9,-disubstituted 2-[trans-(4-aminocyclohexyl) amino] purines” (Aventis Pharmaceuticals Inc., priority 1998, dated 2002).
